According to article PMC9386018, “A lymphatic-absorbed multi-targeted kinase inhibitor for myelofibrosis therapy” (Nature Communications, 2022):
Where “and” joins values, the source holds several entries; their conditions need not be identical. Equal entries are not always repeated.

Legend:
[1] = molecular target: Target kinase isoforms (PI3K, mTOR, RAF, MEK) (Homo sapiens, UniProt P42345); test: Target kinase isoforms 10-point IC50 determination (Supplementary Fig. 7); format: biochemical; conditions: mTOR
Source text: (§1) The average percent kinase inhibition from replicate data was ranked low to high, converted to a compatible identifier format, then input into Coral Human Kinome Visualization software for presentation analysis. […] Scaling of evolutionary distance for PI kinases is only relative and is based on literature analysis[62],[63]. Average percent kinome inhibition values from replicate data are supplied in Source Data file. […] Corrected data was normalized to vehicle treated control values, and dose response percent kinase activity was analyzed by non-linear regression for determination of IC50 values.

[2] = molecular target: Target kinase isoforms (PI3K, mTOR, RAF, MEK) (Homo sapiens, UniProt P42336); test: as above; format: biochemical; conditions: PI3K alpha
Target kinase isoforms (PI3K, mTOR, RAF, MEK) (Homo sapiens, UniProt P42336), sequence (P42336 whole entry, canonical isoform): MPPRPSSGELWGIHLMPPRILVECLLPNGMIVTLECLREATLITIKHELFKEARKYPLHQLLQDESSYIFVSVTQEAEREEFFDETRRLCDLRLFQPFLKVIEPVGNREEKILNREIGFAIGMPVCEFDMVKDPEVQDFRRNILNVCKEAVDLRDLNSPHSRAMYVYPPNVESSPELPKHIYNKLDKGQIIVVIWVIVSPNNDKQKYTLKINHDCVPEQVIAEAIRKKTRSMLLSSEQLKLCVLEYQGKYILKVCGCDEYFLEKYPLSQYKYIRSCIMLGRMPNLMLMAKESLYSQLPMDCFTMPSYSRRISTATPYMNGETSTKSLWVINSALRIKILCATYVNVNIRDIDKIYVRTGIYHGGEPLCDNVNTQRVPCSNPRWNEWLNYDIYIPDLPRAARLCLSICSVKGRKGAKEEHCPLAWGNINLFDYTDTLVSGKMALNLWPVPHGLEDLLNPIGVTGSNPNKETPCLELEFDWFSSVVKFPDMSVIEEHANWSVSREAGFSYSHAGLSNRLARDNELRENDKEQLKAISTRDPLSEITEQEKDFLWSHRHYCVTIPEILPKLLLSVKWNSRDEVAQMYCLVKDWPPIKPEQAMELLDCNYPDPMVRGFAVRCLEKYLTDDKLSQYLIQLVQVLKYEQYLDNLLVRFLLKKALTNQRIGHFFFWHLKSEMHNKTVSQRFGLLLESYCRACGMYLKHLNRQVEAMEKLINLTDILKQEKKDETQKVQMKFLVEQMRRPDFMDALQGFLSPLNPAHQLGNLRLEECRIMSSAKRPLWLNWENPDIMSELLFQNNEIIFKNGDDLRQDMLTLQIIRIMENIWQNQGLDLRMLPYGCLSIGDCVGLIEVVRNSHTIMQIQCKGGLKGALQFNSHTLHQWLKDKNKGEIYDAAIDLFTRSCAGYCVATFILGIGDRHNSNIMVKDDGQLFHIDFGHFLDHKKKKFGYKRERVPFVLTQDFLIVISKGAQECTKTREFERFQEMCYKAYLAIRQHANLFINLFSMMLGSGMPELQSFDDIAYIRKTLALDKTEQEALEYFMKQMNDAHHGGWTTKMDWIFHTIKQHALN
Source text: as §1

[3] = molecular target: Target kinase isoforms (PI3K, mTOR, RAF, MEK) (Homo sapiens, UniProt P42338); test: as above; format: biochemical; conditions: PI3K beta
Target kinase isoforms (PI3K, mTOR, RAF, MEK) (Homo sapiens, UniProt P42338), sequence (P42338 whole entry, canonical isoform): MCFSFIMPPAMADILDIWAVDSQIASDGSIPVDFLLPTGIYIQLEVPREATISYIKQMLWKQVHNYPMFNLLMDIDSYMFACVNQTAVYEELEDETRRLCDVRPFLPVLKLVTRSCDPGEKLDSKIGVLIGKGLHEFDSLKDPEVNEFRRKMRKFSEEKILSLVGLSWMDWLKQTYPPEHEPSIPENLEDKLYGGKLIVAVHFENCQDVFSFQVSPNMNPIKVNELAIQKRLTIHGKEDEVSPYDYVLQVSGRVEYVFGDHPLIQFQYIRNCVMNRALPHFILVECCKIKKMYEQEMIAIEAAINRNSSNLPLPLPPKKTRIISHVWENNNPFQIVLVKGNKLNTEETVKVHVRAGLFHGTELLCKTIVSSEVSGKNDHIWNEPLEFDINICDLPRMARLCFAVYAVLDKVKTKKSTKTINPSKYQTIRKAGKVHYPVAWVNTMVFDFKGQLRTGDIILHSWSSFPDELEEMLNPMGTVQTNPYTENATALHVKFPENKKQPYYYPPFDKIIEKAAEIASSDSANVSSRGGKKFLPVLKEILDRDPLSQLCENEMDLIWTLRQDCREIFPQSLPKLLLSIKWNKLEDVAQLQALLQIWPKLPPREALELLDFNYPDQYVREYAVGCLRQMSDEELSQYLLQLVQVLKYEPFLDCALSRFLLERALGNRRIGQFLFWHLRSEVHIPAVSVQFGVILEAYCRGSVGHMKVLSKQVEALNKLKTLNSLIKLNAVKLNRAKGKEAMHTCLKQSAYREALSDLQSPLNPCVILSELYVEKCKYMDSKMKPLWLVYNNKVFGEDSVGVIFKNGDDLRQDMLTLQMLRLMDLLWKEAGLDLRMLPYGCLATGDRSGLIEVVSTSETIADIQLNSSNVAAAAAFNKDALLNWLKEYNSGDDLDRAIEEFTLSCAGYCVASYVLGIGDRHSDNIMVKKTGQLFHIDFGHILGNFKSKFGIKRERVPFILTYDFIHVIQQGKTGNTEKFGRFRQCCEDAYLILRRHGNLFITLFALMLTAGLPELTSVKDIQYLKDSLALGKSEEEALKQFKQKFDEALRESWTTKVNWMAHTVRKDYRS
Source text: as §1

[4] = Pharmacokinetic analysis of plasma after intravenous and oral dosing
[5] = concentration 0.495 nM, 0.000495 µM
[6] = concentration 1.52 nM, 0.00152 µM
[7] = concentration 4.57 nM, 0.00457 µM
[8] = concentration 41.2 nM, 0.0412 µM

Structure (SMILES): O=C(NOCCOCCOCCOCCC(=O)N1CCN(c2cnc3ccc(-c4cnc(Cl)c(NS(=O)(=O)c5ccc(F)cc5)c4)cc3n2)CC1)c1ccc(F)c(F)c1Nc1ccc(I)cc1F [LP-182, N-(2-(2-(2-(3-(4-(7-(6-chloro-5-((4-fluorophenyl)sulfonamido)pyridin-3-yl)quinoxalin-2-yl)piperazin-1-yl)-3-oxopropoxy)ethoxy)ethoxy)ethoxy)-3,4-difluoro-2-((2-fluoro-4-iodophenyl)amino)benzamide]
- activity at 0.000495 µM ([1]; concentration 0.495 nM): 95%
- Kinase Activity (%) mTOR [1, 5]: 99% and 98% and 101% and 94% and 96%
- activity at 0.00152 µM ([1]; concentration 1.52 nM): 97%
- Kinase Activity (%) mTOR [1, 6]: 99% and 100% and 94%
- activity at 0.00457 µM ([1]; concentration 4.57 nM): 91%
- Kinase Activity (%) mTOR [1, 7]: 92% and 94% and 87% and 88%
- activity at 0.0412 µM ([1]; concentration 41.2 nM): 52%
- Kinase Activity (%) mTOR [1, 8]: 63% and 57% and 47%
- activity at 0.123 µM ([1]; concentration 123 nM): 29%
- Kinase Activity (%) mTOR ([1]; concentration 123 nM, 0.123 µM): 30% and 32% and 31%
- activity at […] ([1]; concentration 370 nM): 13%
- Kinase Activity (%) mTOR ([1]; concentration 1110 nM, 1.11 µM): 4% and 3% and 5% and 1% and 2%
- Kinase Activity (%) mTOR ([1]; concentration 3330 nM, 3.33 µM): 0% and -1% and -2%
- Kinase Activity (%) mTOR ([1]; concentration 10000 nM, 10 µM): 2% and -1% and 1%
- Kinase Activity (%) PI3K alpha ([2]; concentration 0.0188 nM, 18.8 pM): 97% and 99% and 100% and 98% and 76% and 90%
- Kinase Activity (%) PI3K alpha ([2]; concentration 0.0564 nM, 56.4 pM): 93% and 98% and 99% and 108% and 106% and 80% and 82% and 89%
- Kinase Activity (%) PI3K alpha [2, 5]: 79%
- activity at 0.00457 µM ([2]; concentration 4.57 nM): 27%
- Kinase Activity (%) PI3K alpha [2, 8]: 4% and 6% and 8% and 9% and 5% and 10% and 7%
- Kinase Activity (%) PI3K alpha ([2]; concentration 123 nM, 0.123 µM): 1% and 3% and 4% and 2% and 6%
- Kinase Activity (%) PI3K alpha ([2]; concentration 1110 nM, 1.11 µM): 0% and 1%
- Kinase Activity (%) PI3K alpha ([2]; concentration 3330 nM, 3.33 µM): 1% and 0% and 2%
- Kinase Activity (%) PI3K alpha ([2]; concentration 10000 nM, 10 µM): 5% and 0% and 3% and 1%
- Kinase Activity (%) PI3K beta [3, 5]: 105% and 85% and 110% and 102% and 121% and 113%
- Kinase Activity (%) PI3K beta [3, 6]: 95% and 99% and 101% and 103% and 119% and 118%
- Kinase Activity (%) PI3K beta [3, 7]: 89% and 94% and 105% and 106% and 117% and 114%
- Kinase Activity (%) PI3K beta [3, 8]: 80% and 74% and 95% and 101% and 98% and 107%
- Kinase Activity (%) PI3K beta ([3]; concentration 123 nM, 0.123 µM): 63% and 51% and 71% and 72% and 84%
- activity at 3.33 µM ([3]; concentration 3330 nM): 16%
- Kinase Activity (%) PI3K beta ([3]; concentration 3330 nM, 3.33 µM): 24% and 12% and 13% and 14%
- Kinase Activity (%) PI3K beta ([3]; concentration 10000 nM, 10 µM): 13% and 5% and 3%
- Concentration ([4]; Supplementary Figure 6a, i.v., Time 0.167 h, individual replicates): 11100 ng/mL and 8270 ng/mL and 5220 ng/mL
- Concentration ([4]; Supplementary Figure 6a, i.v., Time 0.5 h, individual replicates): 807 ng/mL and 646 ng/mL
- Concentration ([4]; Supplementary Figure 6a, i.v., Time 1 h, individual replicates): 451 ng/mL and 857 ng/mL
- Concentration ([4]; Supplementary Figure 6a, i.v., Time 2 h, individual replicates): 275 ng/mL and 179 ng/mL
- Concentration ([4]; Supplementary Figure 6a, i.v., Time 4 h, individual replicates): 141 ng/mL and 75.9 ng/mL
- Concentration ([4]; Supplementary Figure 6a, i.v., Time 7 h, individual replicates): 51.4 ng/mL and 34.3 ng/mL
- Concentration ([4]; Supplementary Figure 6a, i.v., Time 16 h, individual replicates): 30.6 ng/mL and 29.3 ng/mL and 5.58 ng/mL
- Concentration ([4]; Supplementary Figure 6a, i.v., Time 24 h, individual replicates): 7.68 ng/mL and 8.28 ng/mL
- Concentration ([4]; Supplementary Figure 6a, p.o., Time 0.167 h, individual replicates): 731 ng/mL and 1660 ng/mL and 900 ng/mL
- Concentration ([4]; Supplementary Figure 6a, p.o., Time 0.5 h, individual replicates): 2150 ng/mL and 2630 ng/mL
- Concentration ([4]; Supplementary Figure 6a, p.o., Time 1 h, individual replicates): 1580 ng/mL and 1950 ng/mL
- Concentration ([4]; Supplementary Figure 6a, p.o., Time 2 h, individual replicates): 424 ng/mL and 145 ng/mL and 74.1 ng/mL
- Concentration ([4]; Supplementary Figure 6a, p.o., Time 4 h, individual replicates): 146 ng/mL and 522 ng/mL and 339 ng/mL
- Concentration ([4]; Supplementary Figure 6a, p.o., Time 7 h, individual replicates): 331 ng/mL and 97.6 ng/mL and 1560 ng/mL
- Concentration ([4]; Supplementary Figure 6a, p.o., Time 16 h, individual replicates): 79.2 ng/mL and 205 ng/mL and 265 ng/mL
- Concentration ([4]; Supplementary Figure 6a, p.o., Time 24 h, individual replicates): 401 ng/mL and 114 ng/mL and 295 ng/mL
- concentration at 0.5 h ([4]; female, CD-1, mouse, plasma, iv, 15 mg kg^−1, Concentration (ng/mL), mice, single i.v. LP-182 15 mg kg^−1, 0.5 h, analyte = label, individual animals): 1180 ng/mL
- concentration at 1 h ([4]; female, CD-1, mouse, plasma, iv, 15 mg kg^−1, Concentration (ng/mL), mice, single i.v. LP-182 15 mg kg^−1, 1 h, analyte = label, individual animals): 524 ng/mL
- concentration at 2 h ([4]; female, CD-1, mouse, plasma, iv, 15 mg kg^−1, Concentration (ng/mL), mice, single i.v. LP-182 15 mg kg^−1, 2 h, analyte = label, individual animals): 275 ng/mL
- concentration at 4 h ([4]; female, CD-1, mouse, plasma, iv, 15 mg kg^−1, Concentration (ng/mL), mice, single i.v. LP-182 15 mg kg^−1, 4 h, analyte = label, individual animals): 83.2 ng/mL
- concentration at 7 h ([4]; female, CD-1, mouse, plasma, iv, 15 mg kg^−1, Concentration (ng/mL), mice, single i.v. LP-182 15 mg kg^−1, 7 h, analyte = label, individual animals): 29.2 ng/mL
- concentration at 24 h ([4]; female, CD-1, mouse, plasma, iv, 15 mg kg^−1, Concentration (ng/mL), mice, single i.v. LP-182 15 mg kg^−1, 24 h, analyte = label, individual animals): 9.67 ng/mL
- concentration at 0.5 h ([4]; female, CD-1, mouse, plasma, iv, 15 mg kg^−1, Concentration, Supplementary Figure 6a, Time 0.5 h, individual replicates): 1180 ng/mL
- concentration at 1 h ([4]; female, CD-1, mouse, plasma, iv, 15 mg kg^−1, Concentration, Supplementary Figure 6a, Time 1 h, individual replicates): 524 ng/mL
- concentration at 2 h ([4]; female, CD-1, mouse, plasma, iv, 15 mg kg^−1, Concentration, Supplementary Figure 6a, Time 2 h, individual replicates): 275 ng/mL
- concentration at 4 h ([4]; female, CD-1, mouse, plasma, iv, 15 mg kg^−1, Concentration, Supplementary Figure 6a, Time 4 h, individual replicates): 83.2 ng/mL
